Values after ≈ are worked out from the molar mass of the structure shown. Active and inactive are the calls of the source. The rule behind the calls is not given here. Peptide text beside a SMILES is read from it.
Assays:
Staphylococcus aureus [1] = assay: Antimicrobial activity against methicillin resistant Staphylococcus aureus IS 08032712, incubated for 16 to 18 hrs by fluorescence microplate reader analysis; type: functional; settings: time 16-18 hrs
Staphylococcus aureus [2] = assay: In vivo antibacterial activity against vancomycin resistant Staphylococcus aureus infected in macrophage/monocyte deficient kunming mouse assessed as bacterial load in peritoneal lavage at 10 mg/kg, ip administered 24 hrs before infection; type: functional, organism-based
Mus musculus [3] = assay: Immunomodulatory activity in mouse assessed as increase […] of MCP-1 in peritoneal cavity at 10 mg/kg, ip measured after 5 to 24 hrs by ELISA; type: functional, organism-based; settings: time 5-24 hrs
Pseudomonas aeruginosa = assay: Antimicrobial activity against Pseudomonas aeruginosa ATCC 27853 incubated for 16 to 18 hrs by fluorescence microplate reader analysis; type: functional; settings: time 16-18 hrs
Neutrophil [4] = assay: Immunomodulatory activity in neutrophils (unknown origin) assessed as inhibition of LPS-induced TNF-alpha level at 5 to 20 ug/ml by ELISA; type: functional, cell-based; settings: dose 5-20 µg/ml
Staphylococcus aureus [5] = assay: In vivo antibacterial activity against vancomycin resistant Staphylococcus aureus infected in kunming mouse assessed as reduction in bacterial load in peritoneal lavage at 10 mg/kg, ip administered 24 hrs before infection; type: functional, organism-based
Mus musculus [6] = assay: Immunomodulatory activity in Kunming mouse infected with vancomycin-resistant Staphylococcus aureus assessed as decreased in TNF-alpha level in peritoneal lavage at 10 mg/kg, ip administered 24 hrs before infection by ELISA; type: functional, organism-based
Klebsiella oxytoca = assay: Antimicrobial activity against Klebsiella oxytoca incubated for 16 to 18 hrs by fluorescence microplate reader analysis; type: functional; settings: time 16-18 hrs
[7] = Toxicity in Kunming mouse assessed as effect on CXCL1/KC levels at 10 mg/kg, ip measured after 5 hrs by ELISA; type: organism-based; settings: in vivo
Staphylococcus aureus [8] = assay: In vivo antibacterial activity against methicillin resistant Staphylococcus aureus IS 08032712 infected in kunming mouse assessed as increase in survival rate at 10 mg/kg, ip administered 4 hrs after infection and measured up to 7 days after infection; type: functional, organism-based; settings: time day <=7
LAD2 = assay: Cytotoxicity against human LAD2 cells assessed as mast cell degranulation at 100 ug/ml relative to control; type: cell-based; settings: at 100 µg/mL
Macrophage [9] = assay: Immunomodulatory activity in mouse peritoneal macrophage assessed as inhibition of LPS-induced IL-1beta level measured after 24 hrs by ELISA; type: functional, tissue-based; settings: dose 5-20 µg/ml
Staphylococcus aureus [10] = assay: In vivo antibacterial activity against methicillin sensitive Staphylococcus aureus ATCC 25923 infected in kunming mouse assessed as increase in survival rate at 10 mg/kg, ip administered 4 hrs after infection and measured up to 7 days after infection relative to control; type: functional; settings: time day <=7
Mus musculus [11] = assay: Immunomodulatory activity in Kunming mouse infected with vancomycin-resistant Staphylococcus aureus assessed as increased in CXCL1/KC level in peritoneal lavage at 10 mg/kg, ip administered 24 hrs before infection by ELISA; type: functional, organism-based
[12] = tested on: Stenotrophomonas maltophilia; assay: Antimicrobial activity against Stenotrophomonas maltophilia IS 090223 incubated for 16 to 18 hrs by fluorescence microplate reader analysis; type: functional; settings: time 16-18 hrs
Staphylococcus aureus [13] = assay: In vivo antibacterial activity against vancomycin resistant Staphylococcus aureus infected in kunming mouse assessed as reduction in bacterial load in spleen at 10 mg/kg, ip administered 4 hrs after infection; type: functional, organism-based
Neutrophil [14] = assay: Immunomodulatory activity in neutrophils (unknown origin) assessed as increase in CXCL1/KC level at 20 ug/ml measured after 12 hrs by ELISA; type: functional, cell-based; settings: dose 20.0 µg/ml
[15] = Toxicity in Kunming mouse assessed as effect on IL-6 levels at 10 mg/kg, ip measured after 5 hrs by ELISA; type: organism-based; settings: in vivo
Macrophage [16] = assay: Immunomodulatory activity in mouse peritoneal macrophage assessed as inhibition of LPS-induced IL-1beta level measured after 6 hrs by qRT-PCR analysis; type: functional, tissue-based; settings: dose 5-20 µg/ml
Candida albicans [17] = assay: Antimicrobial activity against Candida albicans IS 08030809 incubated for 16 to 18 hrs by fluorescence microplate reader analysis; type: functional; settings: time 16-18 hrs
[18] = Stability of compound in 80% human serum assessed as intact compound remained measured upto 8 hrs by HPLC analysis; type: cell-free; settings: time hrs <=8
Mus musculus [19] = assay: Immunomodulatory activity in Kunming mouse infected with vancomycin-resistant Staphylococcus aureus assessed as effect number of neutrophil in peritoneal cavity at 10 mg/kg, ip measured upto 24 hrs by flow cytometry; type: functional, organism-based; settings: time hrs <=24
Staphylococcus aureus [20] = assay: Antibacterial activity against vancomycin-resistant Staphylococcus aureus assessed as bacterial growth inhibition in presence of 80% human serum incubated upto 8 hrs; type: functional; settings: time hrs <=8
Mus musculus [21] = assay: Immunomodulatory activity in mouse assessed as increase […] of KC in peritoneal cavity at 10 mg/kg, ip measured after 5 to 24 hrs by ELISA; type: functional, organism-based; settings: time 5-24 hrs
[22] = Induction of neutrophil extracellular trap formation in neutrophil (unknown origin) at 20 ug/ml measured after 3 hrs by fluorescence analysis; type: functional; settings: dose 20 µg/ml
Staphylococcus aureus [23] = assay: Antibacterial activity against vancomycin-resistant Staphylococcus aureus assessed as neutrophil-induced bacterial cell killing neutrophils pretreated with compound at 10 to 40 ug/ml; type: functional, organism-based; settings: dose 10-40 µg/ml, time 15-60 min, TDE = time-dependent effect
Mus musculus [24] = assay: Immunomodulatory activity in Kunming mouse infected with vancomycin-resistant Staphylococcus aureus assessed as decreased in IL-6 level in peritoneal lavage at 10 mg/kg, ip administered 24 hrs before infection by ELISA; type: functional, organism-based
Macrophage [25] = assay: Immunomodulatory activity in mouse peritoneal macrophage assessed as increase in MCP-1 level at 20 microg/ml measured after 24 hrs by ELISA; type: functional, tissue-based; settings: dose 20.0 µg/ml
Neutrophil [26] = assay: Immunomodulatory activity in neutrophils (unknown origin) assessed as effect on TNF-alpha level at 20 ug/ml measured after 12 hrs by ELISA; type: functional, cell-based; settings: dose 20.0 µg/ml
Mus musculus [27] = assay: Immunomodulatory activity in Kunming mouse infected with vancomycin-resistant Staphylococcus aureus assessed as increased in MCP-1 level in peritoneal lavage at 10 mg/kg, ip administered 4 hrs after infection by ELISA; type: functional, organism-based
Escherichia coli = assay: Antibiofilm activity against Escherichia coli assessed as biofilm eradication at BIC-5 by XTT and crystal violet staining assay relative to control; type: functional
Macrophage [28] = assay: Induction of ROS production in mouse peritoneal macrophage by fluorescence assay; type: functional, tissue-based; settings: dose 10-40 µg/ml
Mus musculus [29] = assay: Immunomodulatory activity in Kunming mouse infected with vancomycin-resistant Staphylococcus aureus assessed as decreased in IL-6 level in peritoneal lavage at 10 mg/kg, ip administered 4 hrs after infection by ELISA; type: functional, organism-based
Staphylococcus aureus [30] = assay: Antibacterial activity against vancomycin-resistant Staphylococcus aureus assessed as bacterial growth inhibition in presence of 50 mmol NaCl; type: functional
Staphylococcus aureus [31] = assay: Antibacterial activity against vancomycin-resistant Staphylococcus aureus assessed as bacterial growth inhibition in aqueous solution incubated upto 96 hrs; type: functional; settings: time hrs <=96
Staphylococcus aureus [32] = assay: Antimicrobial activity against Staphylococcus aureus IS 08032706 incubated for 16 to 18 hrs by fluorescence microplate reader analysis; type: functional; settings: time 16-18 hrs
Candida albicans [33] = assay: Antimicrobial activity against Candida albicans IS 08022710 incubated for 16 to 18 hrs by fluorescence microplate reader analysis; type: functional; settings: time 16-18 hrs
Macrophage [34] = assay: Immunomodulatory activity in mouse peritoneal macrophage assessed as inhibition of LPS-induced MCP-1 level measured after 24 hrs by ELISA; type: functional, tissue-based; settings: dose 5-20 µg/ml
[35] = Induction of neutrophil extracellular trap formation in neutrophil (unknown origin) at 40 ug/ml measured after 3 hrs by fluorescence analysis; type: functional; settings: dose 40 µg/ml

SMILES: CC[C@H](C)[C@H](NC(=O)[C@@H]1CCCN1C(=O)[C@@H](NC(=O)[C@@H](NC(=O)CNC(=O)CNC(=O)[C@@H](NC(=O)[C@H](Cc1ccccc1)NC(=O)[C@@H](NC(=O)[C@H](CCCCN)NC(=O)[C@@H](NC(=O)[C@H](CCCCN)NC(=O)[C@H](CCCCN)NC(=O)[C@H](Cc1ccccc1)NC(=O)[C@@H](NC(=O)[C@H](CCCCN)NC(=O)[C@H](CCCNC(=N)N)NC(=O)[C@H](Cc1ccccc1)NC(=O)CNC(=O)[C@H](CCCCN)NC(=O)[C@H](CCCCN)NC(=O)[C@@H](NC(=O)[C@H](CCCCN)NC(=O)[C@H](CCCNC(=N)N)NC(=O)[C@H](Cc1ccccc1)NC(=O)[C@H](Cc1ccccc1)NC(=O)[C@H](CCCCN)NC(=O)[C@H](CCCCN)NC(=O)[C@H](Cc1ccccc1)NC(=O)[C@H](CCCNC(=N)N)NC(=O)[C@@H](N)CCCCN)[C@@H](C)CC)[C@@H](C)CC)[C@@H](C)O)[C@@H](C)CC)[C@@H](C)CC)[C@@H](C)O)[C@@H](C)CC)C(=O)O (H-KRFKKFFRKIKKGFRKIFKKTKIFIGGTIPI-OH)
- MIC (Staphylococcus aureus [1]): 1.17 µg/mL (≈ 0.308 µM)
- Activity (Staphylococcus aureus [2]): inactive
- Activity (Mus musculus [3]): Active
- MIC (Pseudomonas aeruginosa): 1.17 µg/mL (≈ 0.308 µM)
- inhibition (Neutrophil [4]): Active
- Activity (Staphylococcus aureus [5]): Active
- Activity (Mus musculus [6]): Active
- MIC (Klebsiella oxytoca): 1.17 µg/mL (≈ 0.308 µM)
- Activity [7]: Non-Toxic
- Activity (Staphylococcus aureus [8]): Active
- Activity (LAD2): 10.97%
- inhibition (Macrophage [9]): Dose-dependent effect
- Activity (Staphylococcus aureus [10]): 83%
- Activity (Mus musculus [11]): Active
- MIC [12]: 1.17 µg/mL (≈ 0.308 µM)
- Activity (Staphylococcus aureus [13]): Active
- Activity (Neutrophil [14]): Active
- Activity [15]: Non-Toxic
- inhibition (Macrophage [16]): Dose-dependent effect
- MIC (Candida albicans [17]): 1.17 µg/mL (≈ 0.308 µM)
- Stability [18]: 30%
- Activity (Mus musculus [19]): inactive
- MIC (Staphylococcus aureus [20]): 25 µg/mL
- Activity (Mus musculus [21]): Active
- Activity [22]: 32.53%
- Activity (Staphylococcus aureus [23]): Tde
- Activity (Mus musculus [24]): Active
- inhibition (Macrophage [25]): Active
- Activity (Neutrophil [26]): inactive
- Activity (Mus musculus [27]): Active
- Activity (Escherichia coli): 65.98%
- Activity (Macrophage [28]): Dose-dependent effect
- Activity (Mus musculus [29]): Active
- MIC (Staphylococcus aureus [30]): 4.69 µg/mL
- MIC (Staphylococcus aureus [31]): 4.96 µg/mL (≈ 1.3 µM)
- MIC (Staphylococcus aureus [32]): 1.17 µg/mL (≈ 0.308 µM)
- MIC (Candida albicans [33]): 1.17 µg/mL (≈ 0.308 µM)
- inhibition (Macrophage [34]): Dose-dependent effect
- Activity [35]: 41.16%
